The source of these data is the supplement of paper PMC10307832.

Compound in the assay: CN(C/C=C/C1=CC=C(C=C1)Cl)CC2=CC=CC=C2N(CCO)S(=O)(=O)C3=CC=C(C=C3)OC [KN-93] + O=C(CCCCCCC(=O)Nc1ccccc1)NO [Vorinostat] (partner 1 µM)
The experiment in a line: relative viability (nuclei count vs DMSO), 5 days (fraction); higher = more cells survive. The method, boiled down: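 Lung cancer cell lines were pin-tool dosed in 1536-well plates on the day after seeding, with either a lone drug or a fixed anchor-drug dose plus five library-drug doses (not always all listed) in √10 steps. Nuclei were counted on 4× images after 5 days. Relative viability is the ratio of treated-well to vehicle-well nuclei counts, with each value a median of duplicate plates.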

For the cell line 201T, the relative viability runs as follows: (first compound 0.08 µM) 0.875; (first compound 0.253 µM) 0.958; (first compound 2.53 µM) 0.873; (first compound 8 µM) 0.698.

A-427: the relative viability amounted to 0.856 (first compound 0.08 µM), 0.862 (first compound 0.253 µM), 0.868 (first compound 2.53 µM) and 0.59 (first compound 8 µM).

Turning to ABC-1, the relative viability (first compound 0.08 µM) amounted to 0.92, the relative viability (first compound 0.253 µM) amounted to 1.66, the relative viability (first compound 2.53 µM) came to 0.586 and the relative viability (first compound 8 µM) was determined as 0.427.

As to BEN, the relative viability runs as follows: (first compound 0.08 µM) 0.637; (first compound 0.253 µM) 0.596; (first compound 2.53 µM) 0.599; (first compound 8 µM) 0.487.

As for CAL-12T, the relative viability came out at 0.833 (first compound 0.08 µM), 1.01 (first compound 0.253 µM), 0.783 (first compound 2.53 µM) and 0.687 (first compound 8 µM).

For COR-L23, the relative viability reads like this: (first compound 0.08 µM) 0.448; (first compound 0.253 µM) 0.46; (first compound 2.53 µM) 0.509; (first compound 8 µM) 0.402.

As to COR-L 105, the relative viability is, setting by setting: (first compound 0.08 µM) 0.632; (first compound 0.253 µM) 0.824; (first compound 2.53 µM) 0.551; (first compound 8 µM) 0.836.

In the case of ChaGo-K-1, the relative viability reads like this: (first compound 0.08 µM) 0.755; (first compound 0.253 µM) 0.896; (first compound 2.53 µM) 0.822; (first compound 8 µM) 0.582.

Turning to EKVX, the relative viability runs as follows: (first compound 0.08 µM) 0.642; (first compound 0.253 µM) 0.653; (first compound 2.53 µM) 0.655; (first compound 8 µM) 0.585.

With EMC-BAC-2, the relative viability runs as follows: (first compound 0.08 µM) 0.51; (first compound 0.253 µM) 0.534; (first compound 2.53 µM) 0.399; (first compound 8 µM) 0.345.

EPLC-272H: the relative viability runs as follows: (first compound 0.08 µM) 0.436; (first compound 0.253 µM) 0.212; (first compound 2.53 µM) 0.274; (first compound 8 µM) 0.152.

On to H3255, for which the relative viability is, setting by setting: (first compound 0.08 µM) 0.842; (first compound 0.253 µM) 0.76; (first compound 2.53 µM) 0.927; (first compound 8 µM) 0.311.

In the case of HARA, the relative viability (first compound 0.08 µM) worked out at 0.394, the relative viability (first compound 0.253 µM) was found to be 0.475, the relative viability (first compound 2.53 µM) is 0.503 and the relative viability (first compound 8 µM) is 0.493.

Turning to HCC-15, the relative viability worked out at 0.773 (first compound 0.08 µM), 0.877 (first compound 0.253 µM), 0.932 (first compound 2.53 µM) and 0.738 (first compound 8 µM).

Consider HCC-44, for which the relative viability is, setting by setting: (first compound 0.08 µM) 1.13; (first compound 0.253 µM) 1.1; (first compound 2.53 µM) 1.12; (first compound 8 µM) 0.915.

Consider HCC-78, for which the relative viability reads like this: (first compound 0.08 µM) 0.465; (first compound 0.253 µM) 0.405; (first compound 2.53 µM) 0.739; (first compound 8 µM) 0.381.

For HCC-366, the relative viability reads like this: (first compound 0.08 µM) 0.301; (first compound 0.253 µM) 0.251; (first compound 2.53 µM) 0.514; (first compound 8 µM) 0.168.

For the cell line HCC-827, the relative viability is, setting by setting: (first compound 0.08 µM) 0.929; (first compound 0.253 µM) 0.874; (first compound 2.53 µM) 0.793; (first compound 8 µM) 0.777.

With HOP-62, the relative viability by setting is: (first compound 0.08 µM) 0.557; (first compound 0.253 µM) 0.824; (first compound 2.53 µM) 0.748; (first compound 8 µM) 0.487.

As for IA-LM, the relative viability (first compound 0.08 µM) was determined as 0.428, the relative viability (first compound 0.253 µM) was 1.02, the relative viability (first compound 2.53 µM) worked out at 0.982 and the relative viability (first compound 8 µM) was found to be 1.05.

Turning to LC-2-ad, the relative viability was 0.688 (first compound 0.08 µM), 0.801 (first compound 0.253 µM), 0.746 (first compound 2.53 µM) and 0.582 (first compound 8 µM).

LCLC-97TM1: the relative viability (first compound 0.08 µM) came out at 0.629, the relative viability (first compound 0.253 µM) was found to be 0.723, the relative viability (first compound 2.53 µM) amounted to 0.637 and the relative viability (first compound 8 µM) was 0.437.

For LCLC-103H, the relative viability is 0.782 (first compound 0.08 µM), 0.768 (first compound 0.253 µM), 0.658 (first compound 2.53 µM) and 0.573 (first compound 8 µM).

As for LK-2, the relative viability is, setting by setting: (first compound 0.08 µM) 0.241; (first compound 0.253 µM) 0.279; (first compound 2.53 µM) 0.426; (first compound 8 µM) 0.19.

As to LOU-NH91, the relative viability is 0.957 (first compound 0.08 µM), 0.835 (first compound 0.253 µM), 0.903 (first compound 2.53 µM) and 0.8 (first compound 8 µM).

For the cell line LU99A, the relative viability runs as follows: (first compound 0.08 µM) 0.282; (first compound 0.253 µM) 0.48; (first compound 2.53 µM) 0.535; (first compound 8 µM) 0.343.

Take LXF-289: the relative viability worked out at 0.661 (first compound 0.08 µM), 0.839 (first compound 0.253 µM), 0.716 (first compound 2.53 µM) and 0.546 (first compound 8 µM).

Regarding NCI-H23, the relative viability was 0.596 (first compound 0.08 µM), 0.626 (first compound 0.253 µM), 0.543 (first compound 2.53 µM) and 0.258 (first compound 8 µM).

In the case of NCI-H322M, the relative viability by setting is: (first compound 0.08 µM) 0.917; (first compound 0.253 µM) 0.836; (first compound 2.53 µM) 0.826; (first compound 8 µM) 0.782.

As for NCI-H358, the relative viability (first compound 0.08 µM) stood at 0.659, the relative viability (first compound 0.253 µM) came out at 0.79, the relative viability (first compound 2.53 µM) turned out to be 0.824 and the relative viability (first compound 8 µM) was 0.459.

Regarding NCI-H441, the relative viability was 1.06 (first compound 0.253 µM), 0.864 (first compound 2.53 µM) and 0.498 (first compound 8 µM).

For NCI-H460, the relative viability runs as follows: (first compound 0.08 µM) 0.308; (first compound 0.253 µM) 0.618; (first compound 2.53 µM) 1.08; (first compound 8 µM) 0.485.

On to NCI-H520, for which the relative viability by setting is: (first compound 0.08 µM) 0.619; (first compound 0.253 µM) 0.906; (first compound 2.53 µM) 0.831; (first compound 8 µM) 0.58.

As for NCI-H522, the relative viability reads like this: (first compound 0.08 µM) 0.886; (first compound 0.253 µM) 0.966; (first compound 2.53 µM) 0.857; (first compound 8 µM) 0.858.

Turning to NCI-H596, the relative viability came out at 0.654 (first compound 0.08 µM), 0.528 (first compound 0.253 µM), 0.656 (first compound 2.53 µM) and 0.324 (first compound 8 µM).
